Assay results published in PubChem BioAssay (NCI).
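Five compound concentrations were applied to cells in 96-well plates for 48 hours; endpoints were derived by simple linear interpolation of the resulting dose-response curve. TGI is the concentration that stops growth completely.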

What was measured:
Experiment in all cases: inhibition of tumour cell growth, NCI panel, 48 h
[1] = system: 786-0 renal
[2] = system: A498 renal
[3] = system: A549 NSCLC
[4] = system: ACHN renal
[5] = system: BT-549 breast
[6] = system: CAKI-1 renal
[7] = system: CCRF-CEM leukemia
[8] = system: COLO 205 colon
[9] = system: DU-145 prostate
[10] = system: EKVX NSCLC
[11] = system: HCC-2998 colon
[12] = system: HCT-116 colon
[13] = system: HCT-15 colon
[14] = system: HL-60(TB) leukemia
[15] = system: HOP-62 NSCLC
[16] = system: HS 578T breast
[17] = system: HT29 colon
[18] = system: K-562 leukemia
[19] = system: KM12 colon
[20] = system: M14 melanoma
[21] = system: MALME-3M melanoma
[22] = system: MCF7 breast
[23] = system: MDA-MB-231 breast
[24] = system: MDA-MB-435
[25] = system: MDA-N
[26] = system: MOLT-4 leukemia
[27] = system: NCI-H226 lung
[28] = system: NCI-H23 lung
[29] = system: NCI-H460 lung
[30] = system: NCI/ADR-RES ovarian
[31] = system: OVCAR-3 ovarian
[32] = system: OVCAR-4 ovarian
[33] = system: OVCAR-5 ovarian
[34] = system: PC-3 prostate
[35] = system: RPMI-8226 leukemia
[36] = system: RXF 393 renal
[37] = system: SF-268 CNS
[38] = system: SF-295 CNS
[39] = system: SF-539 CNS
[40] = system: SK-MEL-2 melanoma
[41] = system: SK-MEL-28 melanoma
[42] = system: SK-MEL-5 melanoma
[43] = system: SK-OV-3 ovarian
[44] = system: SN12C renal
[45] = system: SNB-19 CNS
[46] = system: SNB-75 CNS
[47] = system: SR leukemia
[48] = system: SW-620 colon
[49] = system: T-47D breast
[50] = system: TK-10 renal
[51] = system: U251 CNS
[52] = system: UACC-257 melanoma
[53] = system: UACC-62 melanoma
[54] = system: UO-31 renal
[55] = system: HOP-92 NSCLC
[56] = system: IGROV1 ovarian
[57] = system: LOX IMVI melanoma
[58] = system: NCI-H522 lung
[59] = system: OVCAR-8 ovarian

Compound: N=c1oc2c(Cl)cc(Cl)cc2cc1C(=O)Nc1ccccn1
- TGI [1]: > 100 µM
- TGI [2]: > 100 µM
- TGI [3]: > 100 µM
- TGI [4]: 64.4 µM
- TGI [5]: > 100 µM
- TGI [6]: > 100 µM
- TGI [7]: > 100 µM
- TGI [8]: > 100 µM
- TGI [9]: > 100 µM
- TGI [10]: > 100 µM
- TGI [11]: > 100 µM
- TGI [12]: > 100 µM
- TGI [13]: > 100 µM
- TGI [14]: > 100 µM
- TGI [15]: > 100 µM
- TGI [16]: 48.4 µM
- TGI [17]: > 100 µM
- TGI [18]: > 100 µM
- TGI [19]: > 100 µM
- TGI [20]: > 100 µM
- TGI [21]: > 100 µM
- TGI [22]: > 100 µM
- TGI [23]: > 100 µM
- TGI [24]: > 100 µM
- TGI [25]: > 100 µM
- TGI [26]: > 100 µM
- TGI [27]: > 100 µM
- TGI [28]: > 100 µM
- TGI [29]: > 100 µM
- TGI [30]: > 100 µM
- TGI [31]: 57.5 µM
- TGI [32]: > 100 µM
- TGI [33]: > 100 µM
- TGI [34]: > 100 µM
- TGI [35]: 60.8 µM
- TGI [36]: 47.7 µM
- TGI [37]: > 100 µM
- TGI [38]: > 100 µM
- TGI [39]: > 100 µM
- TGI [40]: > 100 µM
- TGI [41]: > 100 µM
- TGI [42]: > 100 µM
- TGI [43]: > 100 µM
- TGI [44]: > 100 µM
- TGI [45]: > 100 µM
- TGI [46]: 46.1 µM
- TGI [47]: 65.9 µM
- TGI [48]: > 100 µM
- TGI [49]: > 100 µM
- TGI [50]: > 100 µM
- TGI [51]: > 100 µM
- TGI [52]: > 100 µM
- TGI [53]: 61.4 µM
- TGI [54]: > 100 µM

Compound: CC1(C)CC[C@]2(C(=O)O)CC[C@]3(C)C(=CC[C@@H]4[C@@]5(C)CC[C@H](OC6OC(CO)C(O)C(O)C6OC6OC(CO)C(O)C(O)C6O)C(C)(C)[C@@H]5CC[C@]43C)[C@@H]2C1 (stereo partly drawn)
- TGI [1]: 30.1 µM
- TGI [2]: 34 µM
- TGI [3]: 33.7 µM
- TGI [4]: 32.7 µM
- TGI [5]: 36.2 µM
- TGI [6]: 35.4 µM
- TGI [7]: 46.5 µM
- TGI [8]: 28.7 µM
- TGI [9]: 31.4 µM
- TGI [10]: 35.4 µM
- TGI [11]: 36.2 µM
- TGI [12]: 31.9 µM
- TGI [13]: 35.3 µM
- TGI [14]: 42.8 µM
- TGI [15]: 32.7 µM
- TGI [55]: 31.7 µM
- TGI [16]: 51.9 µM
- TGI [17]: 30.2 µM
- TGI [56]: 34.6 µM
- TGI [18]: 44.6 µM
- TGI [19]: 29.4 µM
- TGI [57]: 82.4 µM
- TGI [20]: 31.2 µM
- TGI [21]: 30.1 µM
- TGI [22]: 36.7 µM
- TGI [23]: 51.9 µM
- TGI [24]: 35.7 µM
- TGI [25]: 34.8 µM
- TGI [26]: 48.3 µM
- TGI [27]: 34.7 µM
- TGI [28]: 53.7 µM
- TGI [29]: 41.5 µM
- TGI [58]: 38 µM
- TGI [30]: 49.2 µM
- TGI [31]: 29.9 µM
- TGI [32]: 30.5 µM
- TGI [33]: 12.5 µM
- TGI [59]: 35.2 µM
- TGI [34]: 31.2 µM
- TGI [35]: 62.3 µM
- TGI [36]: 37.3 µM
- TGI [37]: 32 µM
- TGI [38]: 36 µM
- TGI [40]: 2.48 µM
- TGI [41]: 28.9 µM
- TGI [42]: 33.7 µM
- TGI [43]: 31.9 µM
- TGI [44]: 33.2 µM
- TGI [45]: 32.8 µM
- TGI [46]: 36.3 µM
- TGI [47]: 68 µM
- TGI [48]: 48.3 µM
- TGI [49]: 44.8 µM
- TGI [51]: 16.4 µM
- TGI [52]: 42 µM
- TGI [53]: 34.2 µM
- TGI [54]: 35.8 µM

Compound: Cn1cnc([N+](=O)[O-])c1Sc1nc(N)nc2c1ncn2Cc1ccccc1
- TGI [1]: 68.2 µM
- TGI [2]: 68.3 µM
- TGI [3]: 84.8 µM
- TGI [4]: 31.3 µM
- TGI [5]: 57.2 µM
- TGI [6]: 31.1 µM
- TGI [7]: > 100 µM
- TGI [8]: 32.1 µM
- TGI [9]: > 100 µM
- TGI [10]: 42.3 µM
- TGI [11]: 29.4 µM
- TGI [12]: 42.1 µM
- TGI [13]: 45.8 µM
- TGI [14]: 47.7 µM
- TGI [15]: 55.4 µM
- TGI [55]: 35.9 µM
- TGI [16]: 86.5 µM
- TGI [17]: 67.8 µM
- TGI [56]: > 100 µM
- TGI [18]: > 100 µM
- TGI [19]: > 100 µM
- TGI [57]: 65.4 µM
- TGI [20]: 69 µM
- TGI [21]: 30.8 µM
- TGI [22]: > 100 µM
- TGI [23]: 41.3 µM
- TGI [24]: 72.4 µM
- TGI [25]: 44.9 µM
- TGI [27]: 60.2 µM
- TGI [28]: 36.9 µM
- TGI [29]: 34.7 µM
- TGI [58]: 24.1 µM
- TGI [30]: > 100 µM
- TGI [31]: 9.97 µM
- TGI [32]: > 100 µM
- TGI [33]: 63.1 µM
- TGI [59]: 72.2 µM
- TGI [34]: 36.3 µM
- TGI [35]: 72.5 µM
- TGI [36]: 43.7 µM
- TGI [37]: 44.6 µM
- TGI [38]: > 100 µM
- TGI [40]: 40.4 µM
- TGI [41]: 42.5 µM
- TGI [42]: 41.2 µM
- TGI [43]: 57 µM
- TGI [44]: 37.3 µM
- TGI [45]: > 100 µM
- TGI [46]: > 100 µM
- TGI [47]: > 100 µM
- TGI [48]: 78.2 µM
- TGI [49]: 40.9 µM
- TGI [50]: 41.9 µM
- TGI [51]: 60.1 µM
- TGI [52]: 30.1 µM
- TGI [53]: 31.4 µM
- TGI [54]: 34.2 µM

Compound: COC(=O)c1scc(N)c1-n1ccc(=O)[nH]c1=O
- TGI [1]: > 100 µM
- TGI [2]: > 100 µM
- TGI [3]: > 100 µM
- TGI [4]: > 100 µM
- TGI [5]: > 100 µM
- TGI [6]: > 100 µM
- TGI [7]: > 100 µM
- TGI [8]: > 100 µM
- TGI [9]: > 100 µM
- TGI [10]: > 100 µM
- TGI [11]: > 100 µM
- TGI [12]: > 100 µM
- TGI [13]: > 100 µM
- TGI [14]: > 100 µM
- TGI [55]: > 100 µM
- TGI [16]: > 100 µM
- TGI [17]: > 100 µM
- TGI [56]: > 100 µM
- TGI [18]: > 100 µM
- TGI [19]: > 100 µM
- TGI [57]: > 100 µM
- TGI [20]: > 100 µM
- TGI [21]: > 100 µM
- TGI [22]: > 100 µM
- TGI [23]: > 100 µM
- TGI [24]: > 100 µM
- TGI [25]: > 100 µM
- TGI [26]: > 100 µM
- TGI [27]: > 100 µM
- TGI [28]: > 100 µM
- TGI [29]: > 100 µM
- TGI [58]: > 100 µM
- TGI [30]: > 100 µM
- TGI [32]: > 100 µM
- TGI [33]: > 100 µM
- TGI [59]: > 100 µM
- TGI [34]: > 100 µM
- TGI [35]: > 100 µM
- TGI [36]: > 100 µM
- TGI [37]: > 100 µM
- TGI [39]: > 100 µM
- TGI [40]: > 100 µM
- TGI [41]: > 100 µM
- TGI [42]: > 100 µM
- TGI [44]: > 100 µM
- TGI [45]: > 100 µM
- TGI [46]: > 100 µM
- TGI [47]: > 100 µM
- TGI [48]: > 100 µM
- TGI [49]: > 100 µM
- TGI [50]: > 100 µM
- TGI [51]: > 100 µM
- TGI [52]: > 100 µM
- TGI [53]: > 100 µM
- TGI [54]: > 100 µM
